From patent US10865176B2, “Small molecule modulators of microRNA-34a” (The Chinese University of Hong Kong, priority 2012, dated 2020)

Columns and labels:
miR-34a = miR-34a reporter luciferase assay in Huh7 cells; assay type: cell-based, human
Protocol: The pMIR-REPORT™ luciferase plasmid (1 μg; Ambion) was sequentially double digested with Sac I and Hind III (10 units each, 50 μL reaction; NEB) and was gel purified. Double stranded insert DNA encoding the miR-34a binding site was synthesized through standard oligonucleotide synthesis methods. The sequences used were Forward: 5′z […]-3′ (SEQ ID NO:1) and Reverse: 5′: […]-3′ (SEQ ID NO:2). The insert was hybridized (heated to 95° C., and cooled to 4° C. over 30 min, then held at 4° C. for 60 min) and ligated with T4 ligase (200 units, 10 μL reaction, 1:10 vector/insert ratio; NEB) into the digested pMIR-REPORT™ luciferase vector. Positive colonies were selected by PCR colony screens, and the construction of the pMIR-REPORT™-miR-34a vector was confirmed by double enzyme digestion with NheI, MluI and Nhe I, Hind III (NEB). The luciferase reporter vector containing the miR-34a promoter was kindly provided by Prof. Mendell J T from Johns Hopkins University (21).
Huh7 cells were seeded into 96-well plates 12 h prior to transfection. MiR-34a reporter and the control vector were respectively co-transfected with Renilla luciferase pRL-SV40 into Huh7 cells. All transfections were performed in triplicate. The cells were incubated at 37° C. for 4 h followed by the replacement of transfection media with standard DMEM growth media with 10 μM of the natural products library (NPL) compounds (Tim Tec; 0.1% DMSO final concentration). This library contains 640 compounds including natural products and their derivatives. After 48 h of incubation, the media was removed and cells were lysed and the luciferase signals were measured by luciferase assay as described below.
MiR-34a reporter, the luciferase reporter vector containing miR-34a promoter and the control vectors were transfected into HCC cells 12 h before compound treatment. The Renilla luciferase vector pRL-SV40 was co-transfected as an internal control. HCC cells were then treated with compound for 48-72 h. The luciferase activity was measured by Dual Luciferase Reporter Assay (Promega) with a Wallac VICTOR^3V luminometer. The ratio of firefly luciferase to Renilla expression was calculated for each of the triplicates.

Cyclin D1 and Bcl-2 = experiment: Expression of miR-34a targets Cyclin D1 and Bcl-2 (qRT-PCR, western blotting) in HCC cells; assay type: cell-based, human; conditions: 10 μM, 48 h (RNA) or 72 h (protein)
Protocol: (§1) Total RNA from cell cultures and HCC xenograft tumors were extracted using Trizol (Invitrogen) according to manufacturer's protocols. Total RNAs were dissolved into nuclease-free ddH2O. For protein extraction, cells and HCC xenograft tumors were lysed in 1×RIPA buffer with 1 mM PMSF and 1× complete protease inhibitor cocktail (Roche, Indianapolis, Ind.). Both RNA and protein were stored at −80° C.
(§2) Total RNA was reversely transcribed into cDNAs using High Capacity cDNA Reverse Transcription Kit (Applied Biosystems, Foster city, CA, USA) and nude RT kit (Invitrogen) individually. qRT-PCR was performed using SYBR Green PCR master mix (TaKaRa, Dalian, China). GAPDH was used as an endogenous control. For measuring miR-34a expression level, qPCR was performed by using SYBR Green PCR master mixture (Invitrogen) and U6 was used as the internal control. All samples were normalized to internal controls and fold changes were calculated by relative quantification (2^−ΔΔct).
Protein quantification was performed using BCA protein assay kit (Thermo Fisher Scientific, Rockford, Ill., USA). 25-50 μg protein was separated by SDS-PAGE (sodium dodecyl sulfate-polyacrylamide gel electrophoresis) and transferred to PVDF membranes (Bio-Rad). […] Protein expression was detected by autoradiography using Amersham ECL Plus™ Western Blotting Detection Reagents (GE Healthcare, Uppsala, Sweden).

[1] = test system: CDK6, FOXP, Notch1 and Sirtuin; experiment: Expression of other miR-34a targets by qRT-PCR in HCC cells; assay type: cell-based, human; conditions: 10 μM, 48 h
Protocol: as §1, §2

HepG2 cells = experiment: MTT cell viability assay, HepG2; assay type: cell-based, human
Protocol: (§3) Cell viability was measured by 3-(4,5-Dimethylthiazol-2-yl)-2,5-diphenyltetrazolium bromide (MTT) assay. 1×10^3 Cells were seeded in triplicate on a 96 well plate and were allowed to grow for indicated time points. At each time point a set of cells were incubated with 0.5 mg/ml MTT diluted in 1×PBS. After 2 to 4 h incubation, the MTT solution was removed. The insoluble MTT was dissolved in DMSO. Absorbance at 570 nm was measured by an ELISA plate reader.

[2] = test system: non-tumorigenic human hepatocyte cell line MIHA; experiment: MTT cell viability assay, MIHA; assay type: cell-based; conditions: different concentrations and time points
Protocol: as §3

HepG2 xenografted tumors = experiment: CD31 immunohistochemical staining of HepG2 xenografted tumors (microvessel density); assay type: in vivo, nude mice; conditions: Rubone treated tumors; control group 67.50; p=0.0098
Protocol: Immunohistochemical staining was performed on HepG2 xenografted tumor tissues with CD31 specific antibody (Cat #: Y059114, Abcam, Cambridge, Mass.). Subcutaneous tumor tissue sections were incubated with anti-CD31 overnight at 4° C. Mean microvessel density was calculated by averaging vessel counts from three random fields per slide.

[3] = test system: human umbilical vein endothelial cells (HUVECs); experiment: In vitro tube formation assay; assay type: cell-based; conditions: ECM gel, 4 h
Protocol: The in vitro tube formation assay with human umbilical vein endothelial cells (HUVECs) was performed using the in vitro Angiogenesis Assay Kit (Cell Biolabs). HUVECs were plated at the density of 2×10^4/well and treated with Dimethyl sulfoxide (DMSO) or Rubone ([…] or 2 μM) respectively for 24 h. HUVECs were then seeded onto the ECM gel surface and cultured for 4 h. Then, 100 μl 1× Staining Solution was applied to each well and incubated 30 min at 37° C. and images were captured with an Olympus SC35 camera (Olympus America, Inc., Melville, N.Y.). Tube formation was quantified by counting the number of branching points on each image.

COc1cc(O)c(C(=O)/C=C/c2cc(OC)c(OC)cc2OC)c(OC)c1 [Rubone, 2′-Hydroxy-2,4,4′,5,6′-pentamethoxychalcone]
function as miR-34a activator, re-assayed in triplicate with miR-34a reporter system (miR-34a): functions as the miR-34a activators are confirmed
IC50 (miR-34a; Homo sapiens, Huh-7, 48 h): 3.8 µM
luciferase activities of miR-34a reporter (miR-34a; indicated concentrations, 48 h): inhibited the luciferase activities in a dose-dependent manner
mRNA and protein levels of Cyclin D1 and Bcl-2 (Cyclin D1 and Bcl-2; HepG2 cells): significantly reduced
mRNA and protein levels of Cyclin D1 and Bcl-2 (Cyclin D1 and Bcl-2; Huh7 cells): significantly reduced
expression levels of CDK6, FOXP, Notch1 and Sirtuin ([1]; HepG2 cells): decreased
expression levels of CDK6, FOXP, Notch1 and Sirtuin ([1]; Huh7 cells): decreased
growth inhibitory effect of Rubone after p53 knockdown (MTT) (HepG2 cells; HepG2, 2 μM siRNAs targeting p53, 10 μM Rubone): significantly reversed by knocking down p53
cell growth (MTT) (HepG2 cells; HepG2, 10 μM): significantly inhibited the growth
growth rate (MTT) [2]: little changes in the growth rate
tube score mean (microvessels, CD31 staining) (HepG2 xenografted tumors): 12.50
tube score ([3]; 1 μM, control group 42.33, p=0.0036): 3.667
tube formation ([3]; 2 μM): no tubes formed at all
